≈ marks a conversion by molar mass, not a printed value.
How the values were obtained:
Format in all cases: cell-based
[1] = tested on: Mycoplasma pulmonis; assay: Antimicrobial test, conventional agar plate dilution method, Mycoplasma pulmonis; settings: for MIC: Mycoplasma, read-out: Minimum Inhibitory Concentration, Mycoplasma pulmonis
Text: (§1) ANTIMICROBIAL TEST AGAINST THREE STRAINS OF MYCOPLASMA
(§2) The test was effected by a conventional agar plate dilution method using the indicated strains of mycoplasma. The dithiocarbamic acid derivatives as shown below with Compound Nos. were employed in the test.

[2] = tested on: Mycoplasma gallisepticum; assay: Antimicrobial test, conventional agar plate dilution method, Mycoplasma gallisepticum; settings: for MIC: Mycoplasmoides gallisepticum, read-out: Minimum Inhibitory Concentration, Mycoplasma gallisepticum
Text: as §1, §2

[3] = tested on: Mycoplasma hyorhinis; assay: Antimicrobial test, conventional agar plate dilution method, Mycoplasma hyorhinis; settings: for MIC: Mycoplasma, read-out: Minimum Inhibitory Concentration, Mycoplasma hyorhinis
Text: as §1, §2

Row | SMILES | MIC [1] [µg/mL] | MIC [2] [µg/mL] | MIC [3] [µg/mL] | Minimum Inhibitory Concentration, Mycoplasma pulmonis [1] [µg/mL] | Minimum Inhibitory Concentration, Mycoplasma gallisepticum [2] [µg/mL] | Minimum Inhibitory Concentration, Mycoplasma hyorhinis [3] [µg/mL]
1 | CC(=O)CCSC(=S)N1CCN(C)CC1.Cl [compound 93, 2-Acetylethyl 4-methyl-1-piperazinecarbodithioate hydrochloride] | 0.1 | 0.1 | 0.05 | – | – | –
2 | CN(C)C(=S)SCC1CCCC1=O (stereo not drawn) [Compound No. 1, 2-Oxocyclopentylmethyl dimethyldithiocarbamate] | 0.05 (≈ 0.23 µM) | 0.05 (≈ 0.23 µM) | 0.05 (≈ 0.23 µM) | – | – | –
3 | CC(=O)CCSC(=S)N1CCN(C)CC1 [Compound No. 92, 2-Acetylethyl 4-methyl-1-piperazinecarbodithioate] | 0.2 (≈ 0.812 µM) | 0.2 (≈ 0.812 µM) | 0.025 (≈ 0.101 µM) | – | – | –
4 | O=c1cc(CO)oc(CSC(=S)N2CCOCC2)c1O [compound 262, 5-Hydroxy-2-hydroxymethyl-4-oxo-4H-pyran-6-ylmethyl-4-morpholinecarbodithioate] | 0.78 (≈ 2.46 µM) | 0.2 (≈ 0.63 µM) | 0.78 (≈ 2.46 µM) | – | – | –
5 | O=C1CCCCC1CSC(=S)N1CCCCC1 (stereo not drawn) [Compound No. 9, 2-Oxocyclohexylmethyl 1-piperidinecarbodithioate] | 0.39 (≈ 1.44 µM) | 0.2 (≈ 0.737 µM) | 0.2 (≈ 0.737 µM) | – | – | –
6 | Cc1cc2c(c(O)c1CSC(=S)N1CCOCC1)C1OCC34CCCC(C)(C)C3CCC(C)(O2)C14 (stereo not drawn) [compound 271, 16-(4-Morpholinethiocarbonylthiomethyl)siccanin] | 1.56 (≈ 3.01 µM) | 1.56 (≈ 3.01 µM) | 1.56 (≈ 3.01 µM) | – | – | –
7 | CN(C)C(=S)SCCC(=O)c1ccccc1 [compound 23, 2-Benzoylethyl dimethyldithiocarbamate] | 0.025 (≈ 0.0987 µM) | 0.05 (≈ 0.197 µM) | 0.05 (≈ 0.197 µM) | – | – | –
8 | CCN(CC)C(=S)SCC1CCCCC1=O (stereo not drawn) [compound 6, 2-Oxocyclohexylmethyl diethyldithiocarbamate] | 0.1 (≈ 0.385 µM) | 0.1 (≈ 0.385 µM) | 0.05 (≈ 0.193 µM) | – | – | –
9 | Cc1ccc(C(=O)CCSC(=S)N(C)C)cc1 [compound 55, 2-(p-Toluoyl)ethyl dimethyldithiocarbamate] | 0.39 (≈ 1.46 µM) | 0.2 (≈ 0.748 µM) | 0.2 (≈ 0.748 µM) | – | – | –
10 | Cc1cc(CSC(=S)N2CCCC2C(=O)OCc2ccccc2)cc(C)c1O (stereo not drawn) [compound 191, 4-Hydroxy-3,5-dimethylbenzyl 2-benzyloxycarbonyl-1-pyrrolidinecarbodithioate] | 1.56 (≈ 3.75 µM) | 1.56 (≈ 3.75 µM) | 3.13 (≈ 7.53 µM) | – | – | –
11 | CCN(CC)C(=S)SCc1cc(C)cc(C)c1O [compound 199, 2-Hydroxy-3,5-dimethylbenzyl diethyldithiocarbamate] | – | – | – | 0.39 | 0.39 | 0.39
12 | CCCc1cc(CSC(=S)N(C)C)cc(CN(C)C)c1O.Cl [compound 238, 4-Hydroxy-3-dimethylaminomethyl5-n-propylbenzyl dimethyldithiocarbamate hydrochloride] | 0.2 | 0.2 | 0.2 | – | – | –
13 | CC(C)c1cc(CSC(=S)N2CCOCC2)cc(C(C)C)c1O [compound 210, 4-Hydroxy-3,5-di-isopropylbenzyl 4-morpholinecarbodithioate] | 0.39 (≈ 1.1 µM) | 0.39 (≈ 1.1 µM) | 0.39 (≈ 1.1 µM) | – | – | –
14 | CC(C)C(=O)CCSC(=S)N(C)C [compound 104, 2-Isobutyrylethyl dimethyldithiocarbamate] | 0.2 (≈ 0.912 µM) | 0.2 (≈ 0.912 µM) | 0.2 (≈ 0.912 µM) | – | – | –
15 | CC(C)(C)c1cc(C(SC(=S)N2CCCCC2)c2ccccc2)cc(C(C)(C)C)c1O (stereo not drawn) [compound 225, 4-Hydroxy-3,5-di-t-butyl-α-phenylbenzyl 1-piperidinecarbodithioate] | 0.2 (≈ 0.439 µM) | 0.39 (≈ 0.856 µM) | 0.39 (≈ 0.856 µM) | – | – | –
16 | Cc1cc(CSC(=S)N2CCCCC2)cc(C)c1O [compound 192, 4-Hydroxy-3,5-dimethylbenzyl 1-piperidinecarbodithioate] | 0.39 (≈ 1.32 µM) | 0.39 (≈ 1.32 µM) | 0.1 (≈ 0.338 µM) | – | – | –
17 | CCCCN(C)C(=S)SCCC(C)=O [compound 80, 2-Acethylethyl butylmethyldithiocarbamate] | 0.1 (≈ 0.428 µM) | 0.1 (≈ 0.428 µM) | 0.1 (≈ 0.428 µM) | – | – | –
18 | CN(C)C(=S)SCc1cc(CSC(=S)N(C)C)c(O)c(C(C)(C)C)c1 [compound 251, 2-Hydroxy-5-dimethylthiocarbamoylthiomethyl-3-t-butylbenzyl dimethyldithiocarbamate] | 0.1 (≈ 0.24 µM) | 0.2 (≈ 0.48 µM) | 0.2 (≈ 0.48 µM) | – | – | –
19 | CCN(CC)C(=S)SCC(C)C(C)=O (stereo not drawn) [compound 148, 2-Acetylpropyl diethyldithiocarbamate] | 0.05 (≈ 0.214 µM) | 0.05 (≈ 0.214 µM) | 0.05 (≈ 0.214 µM) | – | – | –
20 | CCN(CC)C(=S)SCC1CCCC1=O (stereo not drawn) [Compound No. 2, 2-Oxocyclopentylmethyl diethyldithiocarbamate] | 0.1 (≈ 0.407 µM) | 0.1 (≈ 0.407 µM) | 0.1 (≈ 0.407 µM) | – | – | –
21 | O=C(CCSC(=S)N1CCCCCC1)c1ccccc1 [compound 31, 2-Benzoylethyl 1-hexamethyleneiminecarbodithioate] | 0.2 (≈ 0.65 µM) | 0.2 (≈ 0.65 µM) | 0.2 (≈ 0.65 µM) | – | – | –
22 | CC(=O)C(CSC(=S)N(C)C)Cc1ccccc1 (stereo not drawn) [compound 156, 2-Acetyl-2-benzylethyl dimethyldithiocarbamate] | 0.2 (≈ 0.711 µM) | 0.2 (≈ 0.711 µM) | 0.2 (≈ 0.711 µM) | – | – | –

Row | SMILES | MIC [1] [µg/mL] | MIC [2] [µg/mL] | MIC [3] [µg/mL] | Minimum Inhibitory Concentration, Mycoplasma pulmonis [1] [µg/mL] | Minimum Inhibitory Concentration, Mycoplasma gallisepticum [2] [µg/mL] | Minimum Inhibitory Concentration, Mycoplasma hyorhinis [3] [µg/mL]
23 | CCCc1cc(CSC(=S)N(C)C)cc(CSC(=S)N(C)C)c1O [compound 248, 4-Hydroxy-5-dimethylthiocarbamoylthiomethyl-3-n-propylbenzyl dimethyldithiocarbamate] | 0.1 (≈ 0.248 µM) | 0.1 (≈ 0.248 µM) | 0.2 (≈ 0.497 µM) | – | – | –
24 | CN1CCN(C(=S)SCCC(=O)c2ccccc2)CC1.Cl [compound 34, 2-Benzoylethyl 4-methyl-1-piperazinecarbodithioate hydrochloride] | 0.05 | 0.05 | 0.05 | – | – | –
25 | CCCCN(C)C(=S)SCC1CCCCC1=O (stereo not drawn) [compound 7, 2-Oxocyclohexylmethyl n-butylmethyldithiocarbamate] | 0.2 (≈ 0.731 µM) | 0.2 (≈ 0.731 µM) | 0.2 (≈ 0.731 µM) | – | – | –
26 | CC=Cc1cc(CSC(=S)N(CC)CC)c(O)c(OC)c1 [compound 246, 2-Hydroxy-3-methoxy-5-propenylbenzyl diethyldithiocarbamate] | 0.2 (≈ 0.614 µM) | 0.39 (≈ 1.2 µM) | 0.39 (≈ 1.2 µM) | – | – | –
27 | CCCCCCCCCCC(CSC(=S)N(C)C)C(C)=O (stereo not drawn) [compound 152, 2-Acetyldodecyl dimethyldithiocarbamate] | 0.1 (≈ 0.302 µM) | 0.1 (≈ 0.302 µM) | 0.39 (≈ 1.18 µM) | – | – | –
28 | CCC(C)c1cc(CSC(=S)N(C)C)cc(CN(C)C)c1O.Cl (stereo not drawn) [compound 240, 4-Hydroxy-3-dimethylaminomethyl-5-sec-butylbenzyl dimethyldithiocarbamate hydrochloride] | 0.39 | 0.39 | 0.2 | – | – | –
29 | CC(=O)CCSC(=S)N1CCCCCC1 [compound 89, 2-Acetylethyl 1-hexamethyleneiminecarbodithioate] | 0.1 (≈ 0.407 µM) | 0.2 (≈ 0.815 µM) | 0.1 (≈ 0.407 µM) | – | – | –
30 | CCN(CC)C(=S)SCCC(=O)CCc1ccccc1O [compound 125, 2-(o-Hydroxyhydrocinnamoyl)ethyl diethyldithiocarbamate] | 0.2 (≈ 0.614 µM) | 0.2 (≈ 0.614 µM) | 0.2 (≈ 0.614 µM) | – | – | –
31 | CN(C)C(=S)SCC1CCCCC1=O (stereo not drawn) [compound 5, 2-Oxocyclohexylmethyl dimethyldithiocarbamate] | 0.1 (≈ 0.432 µM) | 0.05 (≈ 0.216 µM) | 0.05 (≈ 0.216 µM) | – | – | –
32 | Cc1cc(CSC(=S)N2CCOCC2)cc(C)c1O [compound 194, 4-Hydroxy-3,5-dimethylbenzyl 4-morpholinecarbodithioate] | 1.56 (≈ 5.24 µM) | 1.56 (≈ 5.24 µM) | 0.78 (≈ 2.62 µM) | – | – | –
33 | CC(=O)CCSC(=S)N(C)C1CCCCC1 [compound 81, 2-Acetylethyl cyclohexylmethyldithiocarbamate] | 0.2 (≈ 0.771 µM) | 0.2 (≈ 0.771 µM) | 0.2 (≈ 0.771 µM) | – | – | –
34 | CC(=O)C(C)CSC(=S)N1CCCCC1 (stereo not drawn) [compound 149, 2-Acetylpropyl 1-piperidinecarbodithioate] | 0.2 (≈ 0.815 µM) | 0.2 (≈ 0.815 µM) | 0.05 (≈ 0.204 µM) | – | – | –
35 | CCC(=O)CCSC(=S)N(CC)CC [compound 99, 2-Propionylethyl diethyldithiocarbamate] | 0.05 (≈ 0.214 µM) | 0.05 (≈ 0.214 µM) | 0.05 (≈ 0.214 µM) | – | – | –
36 | O=C1CCCC1CSC(=S)N1CCOCC1 (stereo not drawn) [compound 3, 2-Oxocyclopentylmethyl 4-morpholinecarbodithioate] | 0.1 (≈ 0.386 µM) | 0.2 (≈ 0.771 µM) | 0.2 (≈ 0.771 µM) | – | – | –
37 | CCN(CC)C(=S)SCc1cc(C)cc(C)c1O [compound 198, 2-Hydroxy-3,5-dimethylbenzyl diethyldithiocarbamate] | 0.39 (≈ 1.38 µM) | 0.39 (≈ 1.38 µM) | 0.2 (≈ 0.706 µM) | – | – | –
38 | CN(C)C(=S)SCCC(=O)c1cccnc1 [compound 69] | 0.1 (≈ 0.393 µM) | 0.1 (≈ 0.393 µM) | 0.1 (≈ 0.393 µM) | – | – | –
39 | Cc1cc2c(c(O)c1CSC(=S)N(C)C)C1OCC34CCCC(C)(C)C3CCC(C)(O2)C14 (stereo not drawn) [compound 265, 16-Dimethylthiocarbamoylthiomethylsiccanin] | 0.39 (≈ 0.82 µM) | 0.39 (≈ 0.82 µM) | 0.39 (≈ 0.82 µM) | – | – | –
40 | CCN(CC)C(=S)SCc1oc(CO)cc(=O)c1O [compound 255, 5-Hydroxy-2-hydroxymethyl-4-oxo-4H-pyran-6-ylmethyl diethyldithiocarbamate] | 0.1 (≈ 0.33 µM) | 0.05 (≈ 0.165 µM) | 0.05 (≈ 0.165 µM) | – | – | –
41 | CC(C)(C)c1cc(CSC(=S)N2CCCCCC2)cc(C(C)(C)C)c1O [compound 220, 4-Hydroxy-3,5-di-t-butylbenzyl 1-hexamethyleneiminecarbodithioate] | 0.78 (≈ 1.98 µM) | 0.78 (≈ 1.98 µM) | 0.78 (≈ 1.98 µM) | – | – | –
42 | CCN(CC)C(=S)SCCC(=O)CCc1ccc(OC)cc1 [compound 129, 2-(p-Methoxyhydrocinnamoyl)ethyl diethyldithiocarbamate] | 0.2 (≈ 0.589 µM) | 0.2 (≈ 0.589 µM) | 0.2 (≈ 0.589 µM) | – | – | –
43 | CCC(C)c1cc(CSC(=S)N(C)C)cc(CSC(=S)N(C)C)c1O (stereo not drawn) [compound 250, 4-Hydroxy-5-dimethylthiocarbamoylthiomethyl-3-sec-butylbenzyl dimethyldithiocarbamate] | 0.2 (≈ 0.48 µM) | 0.2 (≈ 0.48 µM) | 0.2 (≈ 0.48 µM) | – | – | –

Reference: US4076814A, “Preventive and curative compositions against mycoplasmosis” (Sankyo Company Limited, priority 1975, dated 1978)
